Measured values taken from EP0057900B1, “Animal feed additive for improving growth” (Dr. Karl Thomae GmbH, priority 1981, dated 1982).
Counter-ions that a name gives are not always drawn.

Columns and labels:
[1] = system: Fettsäuregehalt des Blutes; assay: Lipolytic effect in rabbits (blood fatty acid content, method of Duncombe); assay type: in vivo, Kaninchen; details: Oryctolagus cuniculus, iv; male and female rabbits, mean weight 2,3 kg; i. v. in physiological saline; dose causing a 50% reduction of blood fatty acid content; calculated according to Fieler; read-out: ED50 µg/kg i. v.
Description: Beispielsweise wurde die lipolytische Wirkung der Verbindungen • A = 1-(4-Amino-3-cyan-5-fluor-phenyl)-2-tert.butylamino-äthanol-hydrochlorid, • B = 1-(4-Amino-3-cyan-5-fluor-phenyl)-2-isopropylamino-äthanol-hydrochforid, • C = 1-(4-Amino-3-cyan-5-fluor-phenyl)-2-cyclobutylamino-äthanol-hydrochlorid, • D = 1-(4-Amino-3-chlor-5-cyan-phenyl)-2-isopropylamino-äthanol-hydrochlorid, • E = 1-(4-Amino-3-chlor-5-cyan-phenyl)-2-cyclobutylamino-äthanol-hydrochlorid, • F = 1-(4-Amino-3-chlor-5-cyan-phenyl)-2-cyclopentylamino-äthanol-hydrochlorid und • G = 1-(4-Amino-3-chlor-5-trifluormethylphenyl)-2-cyclobutylamino-äthanor-hydrochlorid
an Kaninchen wie folgt geprüft:
Die zu untersuchenden Substanzen wurden männlichen und weiblichen Kaninchen mit einem durchschnittlichen Gewicht von 2,3 kg, gelöst in physiologischer Kochsalzlösung i. v. injiziert (0,2 mg/kg). Der Fettsäuregehalt des Blutes wurde nach der Methode von Duncombe (Biochem. J. 88, 7-10 (1963)) bestimmt. Es wurde die EDso, die Dosis, die eine 50%ige Senkung des Fettsäuregehaltes bewirkt, nach Fieler (Quart. J. Pharm. Pharmacol. 17, 117―123 (1964)) berechnet.

Mäusen = assay: Acute toxicity in mice after i.v. administration; assay type: in vivo; details: mean weight 22 g, i. v. in physiological saline, dose at which 50% of animals died, observation time 14 days, Litchfield and Wilcoxon
Description: (§1) Die akute Toxizität der zu untersuchenden Substanzen, welche in physiologischer Kochsalzlösung gelöst wurden, wurde an Mäusen mit einem durchschnittlichen Gewicht von 22 g nach i. v. Gabe (0.1 mt/10 g) bestimmt. Es wurde die LD50, die Dosis bei welcher 50% der Tiere nach einer Beobachtungszeit von 14 Tagen verstarben, nach der Methode von Litchfield und Wilcoxon (J. Pharmacol. exp. Ther. 96, 99-113 (1949)) berechnet.

[2] = Acute toxicity in mice after i.v. administration; assay type: in vivo, Mäusen; details: mouse, in vivo, iv, mean weight 22 g, i. v. in physiological saline, dose at which 50% of animals died, observation time 14 days, Litchfield and Wilcoxon
Description: as §1

Nc1c(Cl)cc(C(O)CNC2CCC2)cc1C(F)(F)F (stereo not shown) [G, 1-(4-Amino-3-chlor-5-trifluormethylphenyl)-2-cyclobutylamino-äthanor-hydrochlorid]
ED50 [1]: 0.46 µg/kg

CC(C)NCC(O)c1cc(F)c(N)c(C#N)c1 (stereo not shown) [B, 1-(4-Amino-3-cyan-5-fluor-phenyl)-2-isopropylamino-äthanol-hydrochforid]
LD50 mg/kg i. v. (Mäusen): 66,4 mg/kg

CC(C)(C)NCC(O)c1cc(F)c(N)c(C#N)c1 (stereo not shown) [A, 1-(4-Amino-3-cyan-5-fluor-phenyl)-2-tert.butylamino-äthanol-hydrochlorid]
LD50 at 336 h [2]: 73.6 mg/kg

N#Cc1cc(C(O)CNC2CCC2)cc(Cl)c1N (stereo not shown) [Verbindung E, 1-(4-Amino-3-chlor-5-cyan-phenyl)-2-cyclobutylamino-äthanol-hydrochlorid]
LD50 at 336 h [2]: 43.9 mg/kg

CC(C)NCC(O)c1cc(Cl)c(N)c(C#N)c1 (stereo not shown) [D, 1-(4-Amino-3-chlor-5-cyan-phenyl)-2-isopropylamino-äthanol-hydrochlorid]
LD50 at 336 h [2]: 81 mg/kg

N#Cc1cc(C(O)CNC2CCCC2)cc(Cl)c1N (stereo not shown) [F, 1-(4-Amino-3-chlor-5-cyan-phenyl)-2-cyclopentylamino-äthanol-hydrochlorid]
ED50 [1]: 0.16 µg/kg
LD50 mg/kg i. v. (Mäusen): 39,1 mg/kg
